In PubChem BioAssay AID1261 (University of Pittsburgh Molecular Library Screening Center, 2008) one finds IC50 and inhibition data, which are given here for 67 molecules.

Records with an inconclusive call do not appear. Active and inactive are the calls of the source. No rule for the calls is given here. Where only a bound is given, the exact number is not on record here.

The target of one assay is Tyrosine-protein phosphatase YopH [Yersinia enterocolitica]. Nature of the assay: potency against Yersinia YopH phosphatase – biochemical, 10-point dose range, dose response (AID 1261). To be noted: YopH phosphatase enzymatic assay, IC50, 3 runs.
A word on the IC50: it is the point on the concentration scale where inhibition reaches its midpoint. As to `Cc1ccc(NC2=C(NCCO)C(=O)c3ccccc3C2=O)cc1`, the IC50 is > 50 µM (inactive).

For `C=CCOC(=O)C1=C(C)NC2(O)c3ccccc3C(=O)C12O` (stereo not given), the IC50 is > 50 µM (inactive).

Regarding `COc1cc(C2C(C(=O)OC(C)C)=C(C)Nc3[nH]c(=O)[nH]c(=O)c32)ccc1O` (stereo not given), the IC50 was > 50 µM (inactive).

Still in this assay, the particulars now being: YopH phosphatase enzymatic assay, IC50, 3 runs; inhibition; at 50 µM; stronger effect = higher value.
The term inhibition denotes the drop in the measured response relative to a control, in per cent. Turning to `Cc1ccc(C(=O)N2C(=S)C(c3ccc(F)cc3)=NC23CCN(C)CC3)cc1`, the inhibition was -3.79%.

As to `N[C@@H](C(=O)N[C@@H]1C(=O)N2C(C(=O)O)=C(Cl)CS[C@H]12)c1ccccc1`, the inhibition is -8.78%.

In the case of `COc1ccc(CCN2C(=O)c3ccncc3C2=O)cc1OC`, the inhibition was determined as 0.113%.

Take `Nc1nnc2c(n1)CCCC2`: the inhibition stood at 23%.

For `Cc1noc(NS(=O)(=O)c2ccc(NC(=O)CCCOc3ccc(Cl)cc3Cl)cc2)c1C`, the inhibition was -12.1%.

As for `COc1ccc(/C=N/NC(=O)C(C)n2cnc3ccccc3c2=O)cc1OC` (stereo not given), the inhibition was determined as 8.51%.

As to `CCOC(=O)COc1cc(=O)n(CC)c2ccccc12`, the inhibition was -3.72%.

On to `CC(=O)c1ccc(NC2=C(N3CCOCC3)C(=O)c3ccccc3C2=O)cc1`, for which the inhibition amounted to 30.4%.

In the case of `CN(CC(=O)N1CCCc2c1c(=O)oc1ccc(O)cc21)Cc1ccccc1`, the inhibition was -1.35%.

`O=C(NN=c1c(=O)c2ccccc2c1=O)c1ccccc1`: the inhibition was -14.5%.

In the case of `Cc1ccc(N2C(=O)[C@@H]3[C@H](C2=O)C2c4ccccc4C=CN2[C@@H]3C(=O)c2ccco2)c(C)c1` (stereo not given in full), the inhibition came out at 20.7%.

For `O=S(=O)(c1ccc2ccccc2c1)N1CCC(c2nc(-c3ccncc3)no2)CC1`, the inhibition is -14.8%.

Consider `CCC(=O)Nc1nonc1-c1nc2ccccc2n1CCC(C)C`, for which the inhibition is -8.12%.

`Nc1cccc(C2=Nc3cccc4cccc(c34)N2)c1`: the inhibition was determined as 75.9%.

Turning to `CCOC(=O)Oc1ccc2oc(=O)cc(C)c2c1`, the inhibition is -13.7%.

For the molecule `Cc1[nH]n(-c2ccccc2)c(=O)c1C(C[N+](=O)[O-])c1ccc(Cl)cc1` (stereo not given), the inhibition was -6.86%.

In the case of `Cc1ccc(NC2=C(NCCO)C(=O)c3ccccc3C2=O)cc1`, the inhibition turned out to be 7.47%.

`CCCCn1c(N)c(NCCC(C)C)c(=O)[nH]c1=O`: the inhibition stood at 33%.

With `COc1cccc(-c2nc(CS(=O)(=O)CC(=O)N3CCc4ccccc4C3)c(C)o2)c1`, the inhibition was -0.295%.

As for `O=C(CN1C(=O)C2CC=CCC2C1=O)Nc1nnc(SCc2ccc(Cl)cc2)s1` (stereo not given), the inhibition is -4.26%.

Turning to `O=C1c2ccccc2C(=O)C12OC2c1cccc2ccccc12` (stereo not given), the inhibition amounted to 80.3%.

Consider `CC(=O)[C@H]1[C@@H]2C(=O)N(c3cccc(Cl)c3)C(=O)[C@@H]2[C@H]2c3ccccc3C=CN21`, for which the inhibition came out at 5.01%.

As to `CCN1CCN(CCCOc2ccc(-c3ccccc3)cc2)CC1`, the inhibition is -0.391%.

For the molecule `C=CCOC(=O)C1=C(C)NC2(O)c3ccccc3C(=O)C12O` (stereo not given), the inhibition stood at 24.6%.

As to `CCOC(=O)C(NC(=O)Nc1ccccc1)(OCC)C(F)(F)F` (stereo not given), the inhibition was 2.58%.

Turning to `CC1CCN(CCC(=O)N2CCCc3c2c(=O)oc2ccc(O)cc32)CC1`, the inhibition was -1.24%.

As to `O=C1CCC(=O)N1CC(=O)N1c2ccccc2Sc2ccccc21`, the inhibition was -12.5%.

Take `COc1cc(NCCCCCCCN)c2ncccc2c1`: the inhibition was found to be 56.5%.

With `COc1ccc2cc(-c3cc(C(=O)OCC(=O)NC4CCS(=O)(=O)C4)c4ccccc4n3)ccc2c1` (stereo not given), the inhibition came out at 3.98%.

`O=C1C(Nc2cccc(O)c2)=C(N2CCCCC2)C(=O)c2ccccc21`: the inhibition was 35.8%.

Turning to `CC(C(=O)N1CCCc2c1c(=O)oc1ccc(O)cc21)N1CCc2ccccc2C1` (stereo not given), the inhibition was 0.0785%.

Turning to `O=C(O)c1ccc(NC2=C(N3CCOCC3)C(=O)c3ccccc3C2=O)cc1`, the inhibition was -0.899%.

With `O=C(O)C1OC(Oc2cc3oc(-c4ccccc4)cc(=O)c3c(O)c2O)C(O)C(O)C1O` (stereo not given), the inhibition is -26.6%.

As to `COc1ccc(-c2nnc(SCC(=O)c3cccs3)o2)c(OC)c1`, the inhibition is -10.6%.

On to `CCCCCCCC1=CC2=CC(=O)C(C)(OC(C)=O)C(=O)C2=CN1CCc1ccccc1` (stereo not given), for which the inhibition is -7.04%.

Turning to `COc1ccc(N2C(=O)[C@@H]3[C@H](C2=O)[C@H]2c4ccccc4C=CN2[C@@H]3C(C)=O)cc1`, the inhibition is -6.89%.

For `CC(=O)NC1=C(N(C)C2CCS(=O)(=O)C2)C(=O)c2ccccc2C1=O` (stereo not given), the inhibition came out at 9.79%.

On to `N#Cc1c(N)n(CCNC(=O)c2cccs2)c2nc3ccccc3nc12`, for which the inhibition was -16.9%.

For the molecule `O=C(/C(=C(\[O-])c1ccccc1)[n+]1ccc2ccccc2c1)c1ccccc1`, the inhibition was -13.2%.

In the case of `COC(=O)CSc1nnc(CNC(=O)c2cccc(C)c2)n1-c1ccccc1OC`, the inhibition was -14.7%.

As for `COc1ccc(-n2nc3ccccc3n2)cc1`, the inhibition was -5.75%.

With `CCOc1cc(CNc2ccc(N3CCCC3)cc2)cc(Cl)c1OC`, the inhibition is -6.54%.

`CC1=CC(=C(C#N)c2nc3ccccc3s2)C=C(C)N1c1ccc(F)cc1`: the inhibition turned out to be 8.34%.

In the case of `Cc1onc(-c2ccccc2)c1C(=O)NCc1ccccn1`, the inhibition was -11.6%.

As to `COC(=O)Cc1cnc(NC(=O)C2C3CCC(C3)C2C(=O)O)s1` (stereo not given), the inhibition was -18.2%.

For the molecule `O=C(c1ccc(F)cc1)[C@@H]1[C@@H](C(=O)c2ccccc2)[C@@]2(C(=O)Nc3ccccc32)[C@H]2c3ccccc3C=CN12`, the inhibition came to 13.8%.

Take `O=C(c1cccs1)N1CCN=C1SCc1cccnc1`: the inhibition was -11.7%.

For the molecule `CCOC(=O)N1CCN(C(=O)Cn2c(C)cc3ccccc3c2=O)CC1`, the inhibition is -14.1%.

Regarding `CCOC(=O)c1ccc(NS(=O)(=O)c2cc(-c3nnnn3C(C)C)ccc2OC)cc1`, the inhibition is -7.2%.

`COc1ccccc1-c1c(C)nn2c(N3CCCCCC3)cc(C)nc12`: the inhibition was -1.28%.

For the molecule `CC(=O)N1C(=O)/C(=C2\SC(=S)N(c3c(C)n(C)n(-c4ccccc4)c3=O)C2=O)c2ccccc21`, the inhibition turned out to be 4.95%.

On to `Cn1c(COc2ccccc2)nnc1SCc1nc2ccccc2[nH]1`, for which the inhibition was -3.78%.

Take `Cc1ccc(NC2=C(N3CCCCC3)C(=O)c3ccccc3C2=O)cc1`: the inhibition was 35.4%.

`COCCCNC(=O)C1CCCN(C(=O)Nc2ccc(OC)cc2)C1` (stereo not given): the inhibition was -19.6%.

Take `N#Cc1ccccc1Cn1cc(C#N)c2ccccc21`: the inhibition is -11.8%.

For the molecule `CC(=O)Nc1ccc(-c2nnc(SCC(=O)n3c4c(c5ccccc53)CCCC4)n2C)cc1`, the inhibition was -7.8%.

As to `Cc1ccc2c(C)[nH]c(=O)cc2c1`, the inhibition turned out to be 0.968%.

Consider `COc1ccccc1N1C(C)=CC(=C(C#N)c2nc3ccccc3s2)C=C1C`, for which the inhibition is -2.35%.

In the case of `O=C1C(Nc2ccccc2)=C(N2CCCCC2)C(=O)c2ccccc21`, the inhibition was determined as 41.9%.

With `O=c1[nH]c(Nc2ccc(F)cc2)cc2ccccc12`, the inhibition was found to be 28.2%.

`Cc1cc(C)nc(SCC(=O)Oc2ccc3oc(=O)cc(C)c3c2)n1`: the inhibition is -24.4%.

Consider `Cc1ccc(CSCCNC(=O)CN2C(=O)c3ccccc3S2(=O)=O)cc1`, for which the inhibition was -6.7%.

As to `CCOc1ccc(-c2nnc3ccc(SCC(=O)Nc4nc5ccccc5s4)nn23)cc1`, the inhibition is -11.8%.

As for `COCCCNC(=O)CC(NS(=O)(=O)c1ccc(F)cc1)c1ccc(OC)cc1` (stereo not given), the inhibition was -10.7%.

Consider `O=C(c1ccco1)N1CCN(CC(=O)N2CCCc3c2c(=O)oc2ccc(O)cc32)CC1`, for which the inhibition was -5.68%.

For `Cc1ccc(NC(=O)c2ccnc(C(C)(C)C)c2)cc1`, the inhibition was -1.22%.

Take `COc1cc(C2C(C(=O)OC(C)C)=C(C)Nc3[nH]c(=O)[nH]c(=O)c32)ccc1O` (stereo not given): the inhibition was determined as 4.55%.
